These results are taken from ChEMBL document CHEMBL3400097, “Effect of arginine methylation on the RNA recognition and cellular uptake of Tat-derived peptides” (Bioorg Med Chem, 2015).

One series deals with Jurkat. Briefly: Cytotoxicity against human Jurkat cells assessed as cell viability at 120 uM after 4 hrs by WST-1 assay.
Conditions: not given; call rule not given here
In kind it is cell-based. (Tetrazolium assays rely on reduction of a dye to a coloured formazan, in cell work by metabolically active cells.)
As to `CC(=O)N[C@@H](Cc1ccc(O)cc1)C(=O)NCC(=O)N[C@@H](CCCNC(=N)N)C(=O)N[C@@H](CCCCN)C(=O)N[C@@H](CCCCN)C(=O)N[C@@H](CCCNC(=N)N)C(=O)N[C@@H](CCCNC(=N)N)C(=O)N[C@@H](CCC(N)=O)C(=O)N[C@@H](CCCNC(=N)N(C)C)C(=O)N[C@@H](CCCNC(=N)N)C(=O)N[C@@H](CCCNC(=N)N)C(N)=O`, the Activity entry is reported as “Non-toxic”.

In the case of `CC(=O)N[C@@H](Cc1ccc(O)cc1)C(=O)NCC(=O)N[C@@H](CCCNC(=N)N)C(=O)N[C@@H](CCCCN)C(=O)N[C@@H](CCCCN)C(=O)N[C@@H](CCCNC(=N)N)C(=O)N[C@@H](CCCNC(=N)N)C(=O)N[C@@H](CCC(N)=O)C(=O)N[C@@H](CCCNC(=N)N)C(=O)N[C@@H](CCCNC(=N)N)C(=O)N[C@@H](CCCNC(=N)N(C)C)C(N)=O`, the Activity entry is “Non-toxic”.

The next series concerns Jurkat. Kind of series: Cellular uptake in human Jurkat cells at 7 to 120 uM after 15 mins by 6-carboxyfluorescein staining-based flow cytometry. The following applies: 0.25 h. The series is classed as ADME, cell-based.
Take `CN(C)C(=N)NCCC[C@H](NC(=O)[C@H](CCCNC(=N)N)NC(=O)[C@H](CCCCN)NC(=O)[C@H](CCCCN)NC(=O)[C@H](CCCNC(=N)N)NC(=O)CNC(=O)[C@H](Cc1ccc(O)cc1)NC(=O)CCNC(=O)c1ccc2c(c1)C1(OC2=O)c2ccc(O)cc2Oc2cc(O)ccc21)C(=O)N[C@@H](CCC(N)=O)C(=O)N[C@@H](CCCNC(=N)N)C(=O)N[C@@H](CCCNC(=N)N)C(=O)N[C@@H](CCCNC(=N)N)C(N)=O`: the Drug uptake entry is reported as “Active”.

For the compound `CNC(=N)NCCC[C@H](NC(=O)[C@H](CCCCN)NC(=O)[C@H](CCCCN)NC(=O)[C@H](CCCNC(=N)N)NC(=O)CNC(=O)[C@H](Cc1ccc(O)cc1)NC(=O)CCNC(=O)c1ccc2c(c1)C1(OC2=O)c2ccc(O)cc2Oc2cc(O)ccc21)C(=O)N[C@@H](CCCNC(=N)N)C(=O)N[C@@H](CCC(N)=O)C(=O)N[C@@H](CCCNC(=N)N)C(=O)N[C@@H](CCCNC(=N)N)C(=O)N[C@@H](CCCNC(=N)N)C(N)=O`, the Drug uptake result is listed as “Active”.

For the compound `CNC(=N)NCCC[C@H](NC(=O)[C@H](CCCNC(=N)N)NC(=O)[C@H](CCC(N)=O)NC(=O)[C@H](CCCNC(=N)N)NC(=O)[C@H](CCCNC(=N)N)NC(=O)[C@H](CCCCN)NC(=O)[C@H](CCCCN)NC(=O)[C@H](CCCNC(=N)N)NC(=O)CNC(=O)[C@H](Cc1ccc(O)cc1)NC(=O)CCNC(=O)c1ccc2c(c1)C1(OC2=O)c2ccc(O)cc2Oc2cc(O)ccc21)C(=O)N[C@@H](CCCNC(=N)N)C(N)=O`, the Drug uptake result was “Active”.

As for `N=C(N)NCCC[C@H](NC(=O)[C@H](CCCNC(=N)N)NC(=O)[C@H](CCCNC(=N)N)NC(=O)[C@H](CCC(N)=O)NC(=O)[C@H](CCCNC(=N)N)NC(=O)[C@H](CCCNC(=N)N)NC(=O)[C@H](CCCCN)NC(=O)[C@H](CCCCN)NC(=O)[C@H](CCCNC(=N)N)NC(=O)CNC(=O)[C@H](Cc1ccc(O)cc1)NC(=O)CCNC(=O)c1ccc2c(c1)C1(OC2=O)c2ccc(O)cc2Oc2cc(O)ccc21)C(N)=O`, the Drug uptake result was “Active”.

`CN(C)C(=N)NCCC[C@H](NC(=O)[C@H](CCCNC(=N)N)NC(=O)[C@H](CCC(N)=O)NC(=O)[C@H](CCCNC(=N)N)NC(=O)[C@H](CCCNC(=N)N)NC(=O)[C@H](CCCCN)NC(=O)[C@H](CCCCN)NC(=O)[C@H](CCCNC(=N)N)NC(=O)CNC(=O)[C@H](Cc1ccc(O)cc1)NC(=O)CCNC(=O)c1ccc2c(c1)C1(OC2=O)c2ccc(O)cc2Oc2cc(O)ccc21)C(=O)N[C@@H](CCCNC(=N)N)C(N)=O`: the Drug uptake entry is listed as “Active”.

`CN(C)C(=N)NCCC[C@H](NC(=O)[C@H](CCCNC(=N)N)NC(=O)[C@H](CCCNC(=N)N)NC(=O)[C@H](CCC(N)=O)NC(=O)[C@H](CCCNC(=N)N)NC(=O)[C@H](CCCNC(=N)N)NC(=O)[C@H](CCCCN)NC(=O)[C@H](CCCCN)NC(=O)[C@H](CCCNC(=N)N)NC(=O)CNC(=O)[C@H](Cc1ccc(O)cc1)NC(=O)CCNC(=O)c1ccc2c(c1)C1(OC2=O)c2ccc(O)cc2Oc2cc(O)ccc21)C(N)=O`: the Drug uptake result is given as “Active”.

As for `C/N=C(\NC)NCCC[C@H](NC(=O)[C@H](CCCNC(=N)N)NC(=O)[C@H](CCCNC(=N)N)NC(=O)[C@H](CCC(N)=O)NC(=O)[C@H](CCCNC(=N)N)NC(=O)[C@H](CCCNC(=N)N)NC(=O)[C@H](CCCCN)NC(=O)[C@H](CCCCN)NC(=O)[C@H](CCCNC(=N)N)NC(=O)CNC(=O)[C@H](Cc1ccc(O)cc1)NC(=O)CCNC(=O)c1ccc2c(c1)C1(OC2=O)c2ccc(O)cc2Oc2cc(O)ccc21)C(N)=O`, the Drug uptake result was “Active”.

In the case of `CNC(=N)NCCC[C@H](NC(=O)[C@H](CCCNC(=N)N)NC(=O)[C@H](CCCNC(=N)N)NC(=O)[C@H](CCC(N)=O)NC(=O)[C@H](CCCNC(=N)N)NC(=O)[C@H](CCCNC(=N)N)NC(=O)[C@H](CCCCN)NC(=O)[C@H](CCCCN)NC(=O)[C@H](CCCNC(=N)N)NC(=O)CNC(=O)[C@H](Cc1ccc(O)cc1)NC(=O)CCNC(=O)c1ccc2c(c1)C1(OC2=O)c2ccc(O)cc2Oc2cc(O)ccc21)C(N)=O`, the Drug uptake entry is “Active”.

Consider `C/N=C(\NC)NCCC[C@H](NC(=O)[C@H](CCCNC(=N)N)NC(=O)[C@H](CCC(N)=O)NC(=O)[C@H](CCCNC(=N)N)NC(=O)[C@H](CCCNC(=N)N)NC(=O)[C@H](CCCCN)NC(=O)[C@H](CCCCN)NC(=O)[C@H](CCCNC(=N)N)NC(=O)CNC(=O)[C@H](Cc1ccc(O)cc1)NC(=O)CCNC(=O)c1ccc2c(c1)C1(OC2=O)c2ccc(O)cc2Oc2cc(O)ccc21)C(=O)N[C@@H](CCCNC(=N)N)C(N)=O`, for which the Drug uptake entry is “Active”.

`CNC(=N)NCCC[C@H](NC(=O)CNC(=O)[C@H](Cc1ccc(O)cc1)NC(=O)CCNC(=O)c1ccc2c(c1)C1(OC2=O)c2ccc(O)cc2Oc2cc(O)ccc21)C(=O)N[C@@H](CCCCN)C(=O)N[C@@H](CCCCN)C(=O)N[C@@H](CCCNC(=N)N)C(=O)N[C@@H](CCCNC(=N)N)C(=O)N[C@@H](CCC(N)=O)C(=O)N[C@@H](CCCNC(=N)N)C(=O)N[C@@H](CCCNC(=N)N)C(=O)N[C@@H](CCCNC(=N)N)C(N)=O`: the Drug uptake result is given as “Active”.

Take `C/N=C(\NC)NCCC[C@H](NC(=O)CNC(=O)[C@H](Cc1ccc(O)cc1)NC(=O)CCNC(=O)c1ccc2c(c1)C1(OC2=O)c2ccc(O)cc2Oc2cc(O)ccc21)C(=O)N[C@@H](CCCCN)C(=O)N[C@@H](CCCCN)C(=O)N[C@@H](CCCNC(=N)N)C(=O)N[C@@H](CCCNC(=N)N)C(=O)N[C@@H](CCC(N)=O)C(=O)N[C@@H](CCCNC(=N)N)C(=O)N[C@@H](CCCNC(=N)N)C(=O)N[C@@H](CCCNC(=N)N)C(N)=O`: the Drug uptake result is “Active”.

Take `C/N=C(\NC)NCCC[C@H](NC(=O)[C@H](CCCCN)NC(=O)[C@H](CCCCN)NC(=O)[C@H](CCCNC(=N)N)NC(=O)CNC(=O)[C@H](Cc1ccc(O)cc1)NC(=O)CCNC(=O)c1ccc2c(c1)C1(OC2=O)c2ccc(O)cc2Oc2cc(O)ccc21)C(=O)N[C@@H](CCCNC(=N)N)C(=O)N[C@@H](CCC(N)=O)C(=O)N[C@@H](CCCNC(=N)N)C(=O)N[C@@H](CCCNC(=N)N)C(=O)N[C@@H](CCCNC(=N)N)C(N)=O`: the Drug uptake result is on record as “Active”.

Consider `CNC(=N)NCCC[C@H](NC(=O)[C@H](CCC(N)=O)NC(=O)[C@H](CCCNC(=N)N)NC(=O)[C@H](CCCNC(=N)N)NC(=O)[C@H](CCCCN)NC(=O)[C@H](CCCCN)NC(=O)[C@H](CCCNC(=N)N)NC(=O)CNC(=O)[C@H](Cc1ccc(O)cc1)NC(=O)CCNC(=O)c1ccc2c(c1)C1(OC2=O)c2ccc(O)cc2Oc2cc(O)ccc21)C(=O)N[C@@H](CCCNC(=N)N)C(=O)N[C@@H](CCCNC(=N)N)C(N)=O`, for which the Drug uptake entry is recorded as “Active”.

As for `CN(C)C(=N)NCCC[C@H](NC(=O)[C@H](CCCCN)NC(=O)[C@H](CCCCN)NC(=O)[C@H](CCCNC(=N)N)NC(=O)CNC(=O)[C@H](Cc1ccc(O)cc1)NC(=O)CCNC(=O)c1ccc2c(c1)C1(OC2=O)c2ccc(O)cc2Oc2cc(O)ccc21)C(=O)N[C@@H](CCCNC(=N)N)C(=O)N[C@@H](CCC(N)=O)C(=O)N[C@@H](CCCNC(=N)N)C(=O)N[C@@H](CCCNC(=N)N)C(=O)N[C@@H](CCCNC(=N)N)C(N)=O`, the Drug uptake result is “Active”.

For the compound `CNC(=N)NCCC[C@H](NC(=O)[C@H](CCCNC(=N)N)NC(=O)[C@H](CCCCN)NC(=O)[C@H](CCCCN)NC(=O)[C@H](CCCNC(=N)N)NC(=O)CNC(=O)[C@H](Cc1ccc(O)cc1)NC(=O)CCNC(=O)c1ccc2c(c1)C1(OC2=O)c2ccc(O)cc2Oc2cc(O)ccc21)C(=O)N[C@@H](CCC(N)=O)C(=O)N[C@@H](CCCNC(=N)N)C(=O)N[C@@H](CCCNC(=N)N)C(=O)N[C@@H](CCCNC(=N)N)C(N)=O`, the Drug uptake entry was “Active”.

For `CN(C)C(=N)NCCC[C@H](NC(=O)CNC(=O)[C@H](Cc1ccc(O)cc1)NC(=O)CCNC(=O)c1ccc2c(c1)C1(OC2=O)c2ccc(O)cc2Oc2cc(O)ccc21)C(=O)N[C@@H](CCCCN)C(=O)N[C@@H](CCCCN)C(=O)N[C@@H](CCCNC(=N)N)C(=O)N[C@@H](CCCNC(=N)N)C(=O)N[C@@H](CCC(N)=O)C(=O)N[C@@H](CCCNC(=N)N)C(=O)N[C@@H](CCCNC(=N)N)C(=O)N[C@@H](CCCNC(=N)N)C(N)=O`, the Drug uptake result is “Active”.

For `C/N=C(\NC)NCCC[C@H](NC(=O)[C@H](CCC(N)=O)NC(=O)[C@H](CCCNC(=N)N)NC(=O)[C@H](CCCNC(=N)N)NC(=O)[C@H](CCCCN)NC(=O)[C@H](CCCCN)NC(=O)[C@H](CCCNC(=N)N)NC(=O)CNC(=O)[C@H](Cc1ccc(O)cc1)NC(=O)CCNC(=O)c1ccc2c(c1)C1(OC2=O)c2ccc(O)cc2Oc2cc(O)ccc21)C(=O)N[C@@H](CCCNC(=N)N)C(=O)N[C@@H](CCCNC(=N)N)C(N)=O`, the Drug uptake result is recorded as “Active”.

Consider `C/N=C(\NC)NCCC[C@H](NC(=O)[C@H](CCCNC(=N)N)NC(=O)[C@H](CCCCN)NC(=O)[C@H](CCCCN)NC(=O)[C@H](CCCNC(=N)N)NC(=O)CNC(=O)[C@H](Cc1ccc(O)cc1)NC(=O)CCNC(=O)c1ccc2c(c1)C1(OC2=O)c2ccc(O)cc2Oc2cc(O)ccc21)C(=O)N[C@@H](CCC(N)=O)C(=O)N[C@@H](CCCNC(=N)N)C(=O)N[C@@H](CCCNC(=N)N)C(=O)N[C@@H](CCCNC(=N)N)C(N)=O`, for which the Drug uptake result is recorded as “Active”.

As for `CN(C)C(=N)NCCC[C@H](NC(=O)[C@H](CCC(N)=O)NC(=O)[C@H](CCCNC(=N)N)NC(=O)[C@H](CCCNC(=N)N)NC(=O)[C@H](CCCCN)NC(=O)[C@H](CCCCN)NC(=O)[C@H](CCCNC(=N)N)NC(=O)CNC(=O)[C@H](Cc1ccc(O)cc1)NC(=O)CCNC(=O)c1ccc2c(c1)C1(OC2=O)c2ccc(O)cc2Oc2cc(O)ccc21)C(=O)N[C@@H](CCCNC(=N)N)C(=O)N[C@@H](CCCNC(=N)N)C(N)=O`, the Drug uptake entry was “Active”.

In a further series the test system is Nucleic Acid. Briefly: Binding affinity to HIV TAR RNA by electrophoretic mobility shift assay in presence of Escherichia coli tRNA. In kind it is nucleic-acid assay, Human immunodeficiency virus.
Conditions: not given
On the technique in general: In EMSA bound probe runs differently from free probe, usually more slowly.
Usually Kd stands for the equilibrium constant for the complex coming apart. On to `CC(=O)N[C@@H](Cc1ccc(O)cc1)C(=O)NCC(=O)N[C@@H](CCCNC(=N)N)C(=O)N[C@@H](CCCCN)C(=O)N[C@@H](CCCCN)C(=O)N[C@@H](CCCNC(=N)N)C(=O)N[C@@H](CCCNC(=N)N)C(=O)N[C@@H](CCC(N)=O)C(=O)N[C@@H](CCCNC(=N)N(C)C)C(=O)N[C@@H](CCCNC(=N)N)C(=O)N[C@@H](CCCNC(=N)N)C(N)=O`, for which the Kd amounted to 398 nM.

`CC(=O)N[C@@H](Cc1ccc(O)cc1)C(=O)NCC(=O)N[C@@H](CCCNC(=N)N)C(=O)N[C@@H](CCCCN)C(=O)N[C@@H](CCCCN)C(=O)N[C@@H](CCCNC(=N)N)C(=O)N[C@@H](CCCNC(=N)N)C(=O)N[C@@H](CCC(N)=O)C(=O)N[C@@H](CCCNC(=N)N)C(=O)N[C@@H](CCCNC(=N)N)C(=O)N[C@@H](CCCNC(=N)N(C)C)C(N)=O`: the Kd was determined as 277 nM.
